BindingDB's records for doi:10.1038/nchembio.211 (Praecis Pharmaceuticals, 2009)
Residue numbers refer to the chain shown, from its start.

Legend:
Conditions in all cases: pH 9.5; 16 °C
[1] = biological target: T1, Aurora kinase A (Homo sapiens, UniProt O14965); assay: Aurora A Inhibition Assay
T1 sequence (O14965 whole entry): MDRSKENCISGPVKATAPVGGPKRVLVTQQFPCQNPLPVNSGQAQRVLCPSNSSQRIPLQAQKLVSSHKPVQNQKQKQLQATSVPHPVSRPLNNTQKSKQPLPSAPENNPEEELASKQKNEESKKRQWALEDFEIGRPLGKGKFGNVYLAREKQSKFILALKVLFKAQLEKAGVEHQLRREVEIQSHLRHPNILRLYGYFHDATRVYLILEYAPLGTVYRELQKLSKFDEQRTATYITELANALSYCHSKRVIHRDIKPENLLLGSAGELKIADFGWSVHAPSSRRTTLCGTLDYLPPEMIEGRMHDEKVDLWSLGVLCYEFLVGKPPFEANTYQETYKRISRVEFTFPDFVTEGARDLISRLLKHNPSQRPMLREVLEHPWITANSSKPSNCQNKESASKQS
Excerpt: (§1) Selection of DNA-encoded libraries (DELs) which are covalent attachment of encoding double stranded DNA to small-molecule created using a combination of enzymatic and chemical synthesis in a split-and-pool format against Aurora A kinase

[2] = biological target: Mitogen-activated protein kinase 14 (Homo sapiens, UniProt Q16539); assay: MAPK p38 Inhibition Assay
Excerpt: Selection of DNA-encoded libraries (DELs), which are covalent attachment of encoding double stranded DNA to small-molecule created using a combination of enzymatic and chemical synthesis in a split-and-pool format against p38 mitogen-activated protein kinase

[3] = biological target: T2, Aurora kinase A (Homo sapiens, UniProt O14965); assay: Aurora A Inhibition Assay; remark: listed apart in the source
T2 sequence (O14965 whole entry): T1 sequence (O14965 whole entry) with I57V
Excerpt: as §1

Sequence of Mitogen-activated protein kinase 14 (Q16539 whole entry): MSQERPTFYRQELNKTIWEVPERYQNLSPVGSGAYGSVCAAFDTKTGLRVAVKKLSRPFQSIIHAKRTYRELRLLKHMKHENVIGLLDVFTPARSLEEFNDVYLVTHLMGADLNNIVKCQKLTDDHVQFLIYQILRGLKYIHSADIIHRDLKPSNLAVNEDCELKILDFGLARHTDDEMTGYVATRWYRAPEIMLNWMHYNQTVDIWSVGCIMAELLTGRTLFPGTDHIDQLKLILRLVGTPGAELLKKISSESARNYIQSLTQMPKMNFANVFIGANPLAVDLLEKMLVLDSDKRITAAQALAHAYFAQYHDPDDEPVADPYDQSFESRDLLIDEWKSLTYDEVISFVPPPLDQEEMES

IC50 [1] [µM] | SMILES | further results
6.3 | COc1ccccc1CCNc1nc(NC(Cc2c[nH]c3ncccc23)C(N)=O)nc(N(C)[C@@H](C)c2ccccc2)n1 (stereo partly drawn) [2-(4-(2-Methoxyphenethylamino)-6-(methyl((S)-1-phenylethyl)amino)-1,3,5-triazin-2-ylamino)-3-(1H-pyrrolo[2,3-b]pyridin-3-yl)propanamide] | 
3.7 | COc1ccccc1CCNc1nc(Nc2ccc3ncccc3c2)nc(NC(Cc2c[nH]c3ncccc23)C(N)=O)n1 (stereo unspecified) [2-(4-(2-Methoxyphenethylamino)-6-(quinolin-6-ylamino)-1,3,5-triazin-2-ylamino)-3-(1H-pyrrolo[2,3-b]pyridin-3-yl)propanamide] | 
3.8 | CCCCN(C)c1nc(NCCc2ccccc2OC)nc(NC(Cc2c[nH]c3ncccc23)C(N)=O)n1 (stereo unspecified) [2-(4-(Butyl(methyl)amino)-6-(2-methoxyphenethylamino)-1,3,5-triazin-2-ylamino)-3-(1H-pyrrolo[2,3-b]pyridin-3-yl)propanamide] | 
 | CNC(=O)[C@H](Cc1ccc2c(c1)COC(C)(C)O2)Nc1nc(NCC(C)C)nc(-n2cnc3cc(C(=O)N4CCCc5ccccc54)ccc32)n1 [(S)-3-(2,2-Dimethyl-4H-benzo[d][1,3]dioxin-6-yl)-2-(4-(isobutylamino)-6-(5-(1,2,3,4-tetrahydroquinoline-1-carbonyl)-1H-benzo[d]imidazol-1-yl)-1,3,5-triazin-2-ylamino)-N-methylpropanamide] | EC50 [2]: 0.25 µM
 | CNc1nc(NCCc2ccccc2OC)nc(Nc2ccc3ncccc3c2)n1 [DEL-A, 12] | IC50 [3]: 5.1 µM
1.2 | CCCCN(C)c1nc(NCCc2ccccc2OC)nc(NCCc2c[nH]c3ncccc23)n1 [N2-(2-(1H-Pyrrolo[2,3-b]pyridin-3-yl)ethyl)-N4-butyl-N6-(2-methoxyphenethyl)-N4-methyl-1,3,5-triazine-2,4,6-triamine] | 
